The record followed here is patent US5585374A, “Amide derivatives” (John Wyeth Brother, Limited, priority 1992, dated 1996).

SMILES strings stand for the structures.

Test [1] deals with α1 sites. Nature of the test: affinity for α1 sites (procedure of Marrow et al.). Type of test: binding.
Test [2] concerns the target T1, 5-HT1A receptor (Rattus norvegicus, UniProt P19327).
T1 construct: rat hippocampal membrane homogenate; from tissue; host or cells: rat hippocampus (membrane homogenate)
T1 sequence (P19327 1-422): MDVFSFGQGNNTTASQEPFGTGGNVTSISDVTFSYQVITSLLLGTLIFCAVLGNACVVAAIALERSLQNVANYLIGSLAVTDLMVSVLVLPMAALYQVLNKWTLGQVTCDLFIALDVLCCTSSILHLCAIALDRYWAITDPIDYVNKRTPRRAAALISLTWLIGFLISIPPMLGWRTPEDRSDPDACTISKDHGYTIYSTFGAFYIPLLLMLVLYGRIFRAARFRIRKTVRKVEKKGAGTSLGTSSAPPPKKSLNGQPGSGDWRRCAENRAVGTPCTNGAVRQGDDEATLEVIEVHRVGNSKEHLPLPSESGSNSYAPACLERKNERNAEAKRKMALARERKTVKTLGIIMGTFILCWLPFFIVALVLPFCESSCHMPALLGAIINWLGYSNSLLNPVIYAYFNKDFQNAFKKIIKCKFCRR
Nature of the test: 5-HT1A receptor binding activity in rat hippocampal membrane homogenate. The protocol:
The compounds of the invention are tested for 5-HT1A receptor binding activity in rat hippocampal membrane homogenate by the method of B S Alexander and M D Wood, J Pharm Pharmacol, 1988, 40, 888-891.

For test [3], the target named is T2, 5-HT1A receptor (Cavia porcellus, UniProt A0A286Y074).
T2 construct: in the guinea-pig ileum in vitro; from tissue; host or cells: guinea-pig ileum
T2 sequence (A0A286Y074 1-421): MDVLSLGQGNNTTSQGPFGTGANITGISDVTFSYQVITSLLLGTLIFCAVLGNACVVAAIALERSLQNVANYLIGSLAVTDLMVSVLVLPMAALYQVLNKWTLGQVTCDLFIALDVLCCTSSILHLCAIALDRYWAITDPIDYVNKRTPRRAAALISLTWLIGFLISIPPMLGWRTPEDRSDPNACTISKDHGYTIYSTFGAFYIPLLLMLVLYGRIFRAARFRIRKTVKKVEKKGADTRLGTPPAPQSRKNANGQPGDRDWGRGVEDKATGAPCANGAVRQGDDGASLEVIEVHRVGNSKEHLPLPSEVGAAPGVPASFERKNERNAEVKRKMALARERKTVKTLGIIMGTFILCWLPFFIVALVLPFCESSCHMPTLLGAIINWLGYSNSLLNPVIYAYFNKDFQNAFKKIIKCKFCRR
As to the kind of experiment: 5-HT1A receptor antagonism: antagonism of 5-carboxamidotryptamine in guinea-pig ileum in vitro. The settings on record: read-out: pA2 (converted). The protocol:
The compounds are tested for 5-HT1A receptor antagonism activity in a test involving the antagonism of 5-carboxamidotryptamine in the guinea-pig ileum in vitro (based upon the procedure of Fozard et al, Br J Pharmac, 1985, 86, 601 P).

`COc1ccccc1C1CCN(CCC(C(=O)N2CCCCCC2)c2ccccc2)CC1` (single isomer, unassigned; (+)) [(+)-enantiomer]: the IC50 (usually the concentration that inhibits the measured activity by half) in test [1] is 250 nM; in test [2], 0.2 nM. Further, the Kb in test [3] is 1 nM.

Regarding `COc1ccccc1C1CCN(CCC(C(=O)N2CCCCCC2)c2ccccc2)CC1` (stereo not drawn) [2,3,4,5,6,7-hexahydro-1-(4-(1-(1,2,3,4,5,6-hexahydro-4-(2-methoxyphenyl)pyridyl))-2-phenylbutyryl)-1H-azepine], the IC50 is 1080 nM in test [1] and 1.2 nM in test [2]. In addition, the Kb in test [3] was 0.794 nM.
